Test results reported in patent US12503438B2, “Compounds for the treatment of kinase-dependent disorders” (Exelixis, Inc., priority 2019, dated 2025).

How the values were obtained:
[1] = biological target: T1, AXL (Homo sapiens, UniProt P30530); assay: AXL autophosphorylation ELISA in A-172 cells; type: cell-based; settings: cellular activity, Gas6-stimulated, phospho-AXL ELISA
T1 construct: endogenous in cells; host or cells: A-172 glioblastoma cells (ATCC #CRL-1620)
T1 sequence (P30530 26-894): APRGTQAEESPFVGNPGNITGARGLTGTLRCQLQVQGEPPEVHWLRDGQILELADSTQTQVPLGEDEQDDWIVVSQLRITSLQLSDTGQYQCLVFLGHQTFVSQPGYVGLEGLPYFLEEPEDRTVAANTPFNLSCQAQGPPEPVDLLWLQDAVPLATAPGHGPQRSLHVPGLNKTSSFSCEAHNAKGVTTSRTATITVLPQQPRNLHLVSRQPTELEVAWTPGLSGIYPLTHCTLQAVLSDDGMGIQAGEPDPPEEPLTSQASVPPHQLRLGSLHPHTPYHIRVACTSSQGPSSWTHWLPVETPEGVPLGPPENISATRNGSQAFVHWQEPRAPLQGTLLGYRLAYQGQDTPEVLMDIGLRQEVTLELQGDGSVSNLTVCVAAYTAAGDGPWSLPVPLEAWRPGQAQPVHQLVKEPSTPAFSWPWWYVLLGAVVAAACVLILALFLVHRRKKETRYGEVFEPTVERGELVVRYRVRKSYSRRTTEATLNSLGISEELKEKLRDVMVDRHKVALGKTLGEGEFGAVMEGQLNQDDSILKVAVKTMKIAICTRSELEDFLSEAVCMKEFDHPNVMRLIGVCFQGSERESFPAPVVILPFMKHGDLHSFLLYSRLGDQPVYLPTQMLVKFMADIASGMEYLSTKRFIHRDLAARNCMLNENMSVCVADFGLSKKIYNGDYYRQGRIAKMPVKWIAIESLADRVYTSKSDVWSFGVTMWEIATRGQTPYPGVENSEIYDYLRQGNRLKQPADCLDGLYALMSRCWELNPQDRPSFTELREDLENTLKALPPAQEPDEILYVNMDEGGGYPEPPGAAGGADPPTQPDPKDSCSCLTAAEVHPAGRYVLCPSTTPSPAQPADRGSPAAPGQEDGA
Protocol: A-172 glioblastoma cells (ATCC #CRL-1620) were seeded at 2.5×10^5 cells/well onto 24-well plates (Greiner #662165), in DMEM (Thermo Fisher #11995-040) containing 10% FBS (Thermo Fisher #26140-079), 1% MEM NEAA (Thermo Fisher #11140-050), 1% GlutaMax (Thermo Fisher #35050-061) and 1% Penicillin Streptomycin (Thermo Fisher #15140-122). A-172 cells were incubated at 37° C., 5% CO2 for 24 h and then starved for 24 h in serum-free medium. Test compounds were serially diluted to produce an 8-point dose curve in fresh serum-free medium to a final concentration of 0.3% DMSO (vehicle) and added to the cells and incubated for 1 h. Cells were then stimulated with 1 μg/mL recombinant human Gas6 (R&D Systems #885-GSB-500) for 15 min, washed with cold PBS and immediately lysed with 150 μL of cold 1× lysis buffer [20 mM Tris, 137 mM sodium chloride, 2 mM EDTA, 10% glycerol, 1% NP-40 alternative, 1 mM activated sodium orthovanadate, 1 mM PefaBloc SC (Sigma-Aldrich #11429868001), protease/phosphatase inhibitor tablet (Thermo Fisher #A32959)]. Lysates were collected and 100 μL/well added into the human phospho-AXL DuoSet IC ELISA (R&D Systems #DYC2228-2). Assay was performed according to manufacturer's instructions and sample phospho-AXL concentrations were extrapolated using human phospho-AXL control (R&D Systems #841645) as a standard. Positive control wells (100% activity) contained Gas6-stimulated, DMSO-treated cell lysates. Negative control wells (0% activity) contained Gas6-stimulated, reference inhibitor-treated cell lysates. IC50 values were calculated by nonlinear regression analysis using a 4-parameter logistic curve fit in ActivityBase XE (IDBS).

[2] = biological target: Met (Homo sapiens, UniProt P08581); assay: Met autophosphorylation ELISA in PC-3 cells; type: cell-based; set-up: endogenous in cells; host or cells: PC-3 prostate cancer cells (ATCC #CRL-1435); settings: cellular activity, HGF-stimulated, phospho-Met ELISA, read-out: c-Met IC50
Sequence of Met (P08581 25-1390): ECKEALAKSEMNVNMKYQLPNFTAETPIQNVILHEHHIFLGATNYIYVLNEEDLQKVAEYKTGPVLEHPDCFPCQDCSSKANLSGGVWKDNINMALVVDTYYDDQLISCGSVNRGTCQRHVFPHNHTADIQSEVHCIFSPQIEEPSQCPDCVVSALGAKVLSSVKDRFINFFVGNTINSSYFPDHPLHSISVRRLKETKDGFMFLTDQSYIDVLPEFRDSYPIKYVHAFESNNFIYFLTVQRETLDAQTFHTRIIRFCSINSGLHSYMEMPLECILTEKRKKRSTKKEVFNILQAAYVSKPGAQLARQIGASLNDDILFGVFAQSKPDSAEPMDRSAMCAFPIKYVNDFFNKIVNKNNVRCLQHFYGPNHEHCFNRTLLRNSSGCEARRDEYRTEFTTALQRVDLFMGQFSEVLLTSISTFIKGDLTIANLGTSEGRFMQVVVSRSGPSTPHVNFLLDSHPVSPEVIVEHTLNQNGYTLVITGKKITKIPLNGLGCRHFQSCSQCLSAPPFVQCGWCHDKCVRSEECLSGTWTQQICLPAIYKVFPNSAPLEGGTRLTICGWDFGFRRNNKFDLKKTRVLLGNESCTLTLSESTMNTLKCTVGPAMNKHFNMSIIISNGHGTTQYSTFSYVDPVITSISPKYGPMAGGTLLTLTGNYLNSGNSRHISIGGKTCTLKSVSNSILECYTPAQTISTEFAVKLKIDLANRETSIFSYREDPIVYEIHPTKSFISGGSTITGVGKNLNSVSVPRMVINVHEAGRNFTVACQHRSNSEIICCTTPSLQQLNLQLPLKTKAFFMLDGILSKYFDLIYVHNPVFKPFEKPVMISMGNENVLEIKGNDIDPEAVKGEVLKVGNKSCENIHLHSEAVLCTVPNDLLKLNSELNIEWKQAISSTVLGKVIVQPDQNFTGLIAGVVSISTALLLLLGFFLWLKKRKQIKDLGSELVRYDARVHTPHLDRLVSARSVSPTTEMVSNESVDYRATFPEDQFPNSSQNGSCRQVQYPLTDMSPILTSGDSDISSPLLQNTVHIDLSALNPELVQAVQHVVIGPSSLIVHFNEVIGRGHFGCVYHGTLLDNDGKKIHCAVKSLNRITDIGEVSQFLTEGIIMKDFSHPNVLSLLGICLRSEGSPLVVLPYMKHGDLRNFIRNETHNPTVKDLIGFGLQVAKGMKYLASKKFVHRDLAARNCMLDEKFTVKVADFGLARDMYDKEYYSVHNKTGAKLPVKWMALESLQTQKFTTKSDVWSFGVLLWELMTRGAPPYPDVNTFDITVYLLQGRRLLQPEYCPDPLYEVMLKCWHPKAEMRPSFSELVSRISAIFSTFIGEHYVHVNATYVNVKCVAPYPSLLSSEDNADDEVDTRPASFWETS
Protocol: PC-3 prostate cancer cells (ATCC #CRL-1435) were seeded at 4×10^4 cells/well onto 24-well plates (Greiner #662165), in DMEM (Thermo Fisher #11995-040) containing 10% FBS (Thermo Fisher #26140-079), 1% MEM NEAA (Thermo Fisher #11140-050), 1% GlutaMax (Thermo Fisher #35050-061), and 1% Penicillin Streptomycin (Thermo Fisher #15140-122). PC-3 cells were incubated at 37° C., 5% CO2 for 24 h and then starved for 3 h in serum-free medium. Test compounds were serially diluted to produce an 8-point dose curve in fresh serum-free medium to a final concentration of 0.3% DMSO (vehicle) and added to the cells and incubated for 1 h. Cells were then stimulated with 100 ng/mL recombinant human HGF (R&D Systems #294-HG-250) for 10 min, washed with cold PBS and immediately lysed with 130 μL of cold 1× lysis buffer [20 mM Tris, 137 mM sodium chloride, 2 mM EDTA, 10% glycerol, 1% NP-40 alternative, 1 mM activated sodium orthovanadate, 1 mM PefaBloc SC (Sigma-Aldrich #11429868001), protease/phosphatase inhibitor tablet (Thermo Fisher #A32959)]. Lysates were clarified by centrifugation and 100 μL/well added into the PathScan phospho-Met (panTyr) Sandwich ELISA (Cell Signaling Technology #7333). Assay was performed according to manufacturer's instructions. Positive control wells (100% activity) contained HGF-stimulated, DMSO-treated cell lysates. Negative control wells (0% activity) contained HGF-stimulated, reference inhibitor-treated cell lysates. IC50 values were calculated by nonlinear regression analysis using a 4-parameter logistic curve fit in ActivityBase XE (IDBS).

| IC50 [1] [nM] | IC50 [2] [nM] | SMILES |
| --- | --- | --- |
| 10 to 100 | 10 to 100 | O=C(Nc1ccc(F)cc1)C1(C(=O)Nc2ccc(Oc3ccnc4cc(-c5cncnc5)ccc34)cc2)CC1 [Compound 27, 1-N′-(4-Fluorophenyl)-1-N-[4-(7-pyrimidin-5-ylquinolin-4-yl)oxyphenyl]cyclopropane-1,1-dicarboxamide] |
| ≤ 10 | ≤ 10 | O=C(Nc1ccc(F)cc1)C1(C(=O)Nc2ccc(Oc3ccnc4cc(-c5ccnnc5)ccc34)cc2)CC1 [Compound 28, 1-N′-(4-Fluorophenyl)-1-N-[4-(7-pyridazin-4-ylquinolin-4-yl)oxyphenyl]cyclopropane-1,1-dicarboxamide] |
| 10 to 100 | 10 to 100 | O=C(Nc1ccc(F)cc1)C1(C(=O)Nc2ccc(Oc3ccnc4cc(-c5cnn6c5CCC6)ccc34)cc2)CC1 [Compound 29, 1-N-[4-[7-(5,6-Dihydro-4H-pyrrolo[1,2-b]pyrazol-3-yl)quinolin-4-yl]oxyphenyl]-1-N′-(4-fluorophenyl)cyclopropane-1,1-dicarboxamide] |
| 10 to 100 | 10 to 100 | Cc1cc(-c2ccc3c(Oc4ccc(NC(=O)C5(C(=O)Nc6ccc(F)cc6)CC5)cc4)ccnc3c2)ccn1 [Compound 30, 1-N′-(4-Fluorophenyl)-1-N-[4-[7-(2-methylpyridin-4-yl)quinolin-4-yl]oxyphenyl]cyclopropane-1,1-dicarboxamide] |
| 10 to 100 | 10 to 100 | COc1cc(-c2ccc3c(Oc4ccc(NC(=O)C5(C(=O)Nc6ccc(F)cc6)CC5)cc4)ccnc3c2)ccn1 [Compound 31, 1-N′-(4-Fluorophenyl)-1-N-[4-[7-(2-methoxypyridin-4-yl)quinolin-4-yl]oxyphenyl]cyclopropane-1,1-dicarboxamide] |
| 10 to 100 | 10 to 100 | O=C(Nc1ccc(F)cc1)C1(C(=O)Nc2ccc(Oc3ccnc4cc(-c5ccnc(F)c5)ccc34)cc2)CC1 [Compound 33, 1-N′-(4-Fluorophenyl)-1-N-[4-[7-(2-fluoropyridin-4-yl)quinolin-4-yl]oxyphenyl]cyclopropane-1,1-dicarboxamide] |
| 10 to 100 | 10 to 100 | N#Cc1cc(-c2ccc3c(Oc4ccc(NC(=O)C5(C(=O)Nc6ccc(F)cc6)CC5)cc4)ccnc3c2)ccn1 [Compound 34, 1-N-[4-[7-(2-Cyanopyridin-4-yl)quinolin-4-yl]oxyphenyl]-1-N′-(4-fluorophenyl)cyclopropane-1,1-dicarboxamide] |
| 10 to 100 | 10 to 100 | Nc1ccc(-c2ccc3c(Oc4ccc(NC(=O)C5(C(=O)Nc6ccc(F)cc6)CC5)cc4)ccnc3c2)cn1 [Compound 38, 1-N-[4-[7-(6-Aminopyridin-3-yl)quinolin-4-yl]oxyphenyl]-1-N′-(4-fluorophenyl)cyclopropane-1,1-dicarboxamide] |
| 10 to 100 | 10 to 100 | O=C(Nc1ccc(F)cc1)C1(C(=O)Nc2ccc(Oc3ccnc4cc(-c5cnc6[nH]ncc6c5)ccc34)cc2)CC1 [Compound 39, 1-N′-(4-Fluorophenyl)-1-N-[4-[7-(1H-pyrazolo[3,4-b]pyridin-5-yl)quinolin-4-yl]oxyphenyl]cyclopropane-1,1-dicarboxamide] |
| 10 to 100 | 10 to 100 | N#Cc1cncc(-c2ccc3c(Oc4ccc(NC(=O)C5(C(=O)Nc6ccc(F)cc6)CC5)cc4)ccnc3c2)c1 [Compound 40, 1-N-[4-[7-(5-Cyanopyridin-3-yl)quinolin-4-yl]oxyphenyl]-1-N′-(4-fluorophenyl)cyclopropane-1,1-dicarboxamide] |
| 10 to 100 | 10 to 100 | O=C(Nc1ccc(F)cc1)C1(C(=O)Nc2ccc(Oc3ccnc4cc(-c5ccc(F)nc5)ccc34)cc2)CC1 [Compound 41, 1-N′-(4-Fluorophenyl)-1-N-[4-[7-(6-fluoropyridin-3-yl)quinolin-4-yl]oxyphenyl]cyclopropane-1,1-dicarboxamide] |
| 10 to 100 | 10 to 100 | N#Cc1ccc(-c2ccc3c(Oc4ccc(NC(=O)C5(C(=O)Nc6ccc(F)cc6)CC5)cc4)ccnc3c2)cn1 [Compound 42, 1-N-[4-[7-(6-Cyanopyridin-3-yl)quinolin-4-yl]oxyphenyl]-1-N′-(4-fluorophenyl)cyclopropane-1,1-dicarboxamide] |
| 10 to 100 | 100 to 300 | O=C(Nc1ccc(F)cc1)C1(C(=O)Nc2ccc(Oc3ccnc4cc(-c5cncc(F)c5)ccc34)cc2)CC1 [Compound 45, 1-N′-(4-Fluorophenyl)-1-N-[4-[7-(5-fluoropyridin-3-yl)quinolin-4-yl]oxyphenyl]cyclopropane-1,1-dicarboxamide] |
| > 300 | 100 to 300 | Cc1cncc(-c2ccc3c(Oc4ccc(NC(=O)C5(C(=O)Nc6ccc(F)cc6)CC5)cc4)ccnc3c2)c1 [Compound 46, 1-N′-(4-Fluorophenyl)-1-N-[4-[7-(5-methylpyridin-3-yl)quinolin-4-yl]oxyphenyl]cyclopropane-1,1-dicarboxamide] |
| 10 to 100 | 100 to 300 | COc1cncc(-c2ccc3c(Oc4ccc(NC(=O)C5(C(=O)Nc6ccc(F)cc6)CC5)cc4)ccnc3c2)c1 [Compound 47, 1-N′-(4-Fluorophenyl)-1-N-[4-[7-(5-methoxypyridin-3-yl)quinolin-4-yl]oxyphenyl]cyclopropane-1,1-dicarboxamide] |
| 100 to 300 | 100 to 300 | CC(C)Oc1ccc(-c2ccc3c(Oc4ccc(NC(=O)C5(C(=O)Nc6ccc(F)cc6)CC5)cc4)ccnc3c2)cn1 [Compound 50, 1-N′-(4-Fluorophenyl)-1-N-[4-[7-(6-propan-2-yloxypyridin-3-yl)quinolin-4-yl]oxyphenyl]cyclopropane-1,1-dicarboxamide] |
| ≤ 10 | ≤ 10 | O=C(Nc1ccc(F)cc1)C1(C(=O)Nc2ccc(Oc3ccnc4cc(-c5ccc(O)nc5)ccc34)cc2)CC1 [Compound 51, 1-N′-(4-Fluorophenyl)-1-N-[4-[7-(6-hydroxypyridin-3-yl)quinolin-4-yl]oxyphenyl]cyclopropane-1,1-dicarboxamide] |
| 100 to 300 | 10 to 100 | O=C(Nc1ccc(F)cc1)C1(C(=O)Nc2ccc(Oc3ccnc4cc(-c5cccnc5O)ccc34)cc2)CC1 [Compound 52, 1-N′-(4-Fluorophenyl)-1-N-[4-[7-(2-hydroxypyridin-3-yl)quinolin-4-yl]oxyphenyl]cyclopropane-1,1-dicarboxamide] |
